The values that follow come from patent publication US9242959B2, “(Aza)benzhydryl ether derivatives, their process of preparation and their use as H4-receptor ligands for therapeutical applications” (BIOPROJET, priority 2012, dated 2016).

In data set [1] the target is T1, human H4 receptor (Homo sapiens, UniProt Q9H3N8).
T1 construct: expressed in transfected cells
The data set is described as follows: [3H]Histamine binding assay on membranes of CHO cells stably expressing human H4 receptor. The method, then:
CHO cells stably expressing human H4 receptor were grown until sub-confluence and centrifuged at 300 g 15 minutes at 4° C. Pellets were resuspended in buffer I Tris-HCl 50 mM, MgCl2 10 mM, NaCl 140 mM, pH=7.4 supplemented by a 1/50 dilution of a mix of protease inhibitors. The obtained suspension is stirred gently and submitted to a […] exerted through a syringe. The cell lysate is then centrifuged at 300 g 15 minutes at 4° C. in order to eliminate nucleus and cell scraps. The obtained supernatant was then centrifuged at 48000 g for 30 minutes at 4° C. The final pellet is resuspended in buffer I with a potter homogenizer. Aliquots were frozen in liquid nitrogen and stored until use at −80° C. Protein content is measured by the Bradford method.
Defreezed membranes were diluted at a final concentration of 20 μg/180 μL/well in a binding buffer containing 50 mM Tris/HCl, 0.5 mM EDTA, pH=7.4 and distributed in 96 well polystyrene microplate. [^3H] […] Non specific binding was estimated in the presence of 10 μM BP1.2404 (JNJ 7777120). The reaction was terminated by filtration through GF/B filters pre-soaked 2 hours at 4° C. in 1% polyethyleneimine. Filters were rinsed 3 times with 250 μl of ice cold incubation binding buffer.
The filter-bound radioactivity was measured in a liquid scintillation counter Microbeta TRILUX® with 50 μl of scintillation fluid.
The hH4 binding investigated by use of [^3H]

The target in data set [2] is T1, human H4 receptor. The data set is described as follows: GTPγ[35S] binding assay on membranes of SH-SY5Y cells stably expressing human H4 receptor. It is filed as biochemical. The method, then: SH-SY5Y cells stably expressing human H4 receptor are grown until sub-confluence and centrifuged at 300 g 15 minutes at 4° C. Pellets are resuspended in buffer I Tris-HCl 50 mM, MgCl2 10 mM, NaCl 140 mM, pH=7.4 supplemented by Leupeptin 10 μg/mL, Phenyl Methyl Sulphonyl Fluoride (PMSF) 0.1 mM, Aprotinin 2 μg/mL and Pepstatin 2 μM (or a 1/50 dilution of a mix of protease inhibitors). The obtained suspension is stirred gently and submitted to a […] exerted through a syringe. The cell lysate is then centrifuged at 300 g 15 minutes at 4° C. in order to eliminate nucleus and cell scraps. The obtained supernatant is then centrifuged at 48000 g for 30 minutes at 4° C. The final pellet is resuspended in buffer I with a potter homogenizer. Aliquots are frozen in liquid nitrogen and stored until use at −80° C. Protein content is measured by the Bradford method.
Defreezed membranes are diluted at a final concentration of 5 μg/180 μL/well in buffer I supplemented by GDP 10 μM and distributed in 96 well polystyrene microplate. GTPγ [^35S] labelled ligand (0.2-0.3 nM) is added for additional 30 minutes. After transfer in a Millipore GF/C HTS® microplate, the filtration of the rectional mix is followed by a three times 250 μl wash to stop the reaction.
The filter-bound radioactivity is measured in a liquid scintillation counter Microbeta TRILUX® with 50 μl of scintillation fluid.
Results are expressed with IC50 and Ki values.
A general note: Binding of GTPγS marks nucleotide exchange on a G protein.

Structures are written as SMILES.

T1 sequence (Q9H3N8 whole entry): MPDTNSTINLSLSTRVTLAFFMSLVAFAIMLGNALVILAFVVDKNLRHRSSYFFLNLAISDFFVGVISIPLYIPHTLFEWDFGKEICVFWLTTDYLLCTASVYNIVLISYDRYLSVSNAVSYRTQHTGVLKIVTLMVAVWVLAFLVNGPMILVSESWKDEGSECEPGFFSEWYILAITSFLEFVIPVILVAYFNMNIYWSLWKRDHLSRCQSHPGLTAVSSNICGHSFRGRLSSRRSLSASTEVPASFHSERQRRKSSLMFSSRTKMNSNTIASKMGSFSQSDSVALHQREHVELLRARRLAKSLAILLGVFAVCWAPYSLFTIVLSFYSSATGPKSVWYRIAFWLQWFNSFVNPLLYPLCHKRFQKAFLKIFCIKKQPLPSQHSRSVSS

Take `CN1CCC(OC(c2ccccn2)c2cc(OC(F)(F)F)ccc2F)CC1.O=C(O)C(=O)O.O=C(O)C(=O)O` (stereo not drawn) [Example 1, 2-[(2-Fluoro-5-trifluoromethoxyphenyl)(1-methylpiperidin-4-yloxy)methyl]pyridine, dioxalate]: the melting point – broadly, the temperature, or range, at which the solid turns liquid – amounted to 45 °C. In addition, at human H4 receptor [1], the Ki (in general, the dissociation constant of the complex between target and ligand, obtained from inhibition or displacement) is less than 0.3 µM. Also, the IC50 (commonly the concentration that inhibits the measured activity by half) at human H4 receptor [2] is less than 0.3 µM.

For `Cc1ccc(C(OC2CCN(C)CC2)c2ccc(Cl)cn2)c(F)c1.O=C(O)C(=O)O` (stereo not drawn) [Example 2, 5-Chloro-2-[(2-fluoro-4-methylphenyl)(1-methylpiperidin-4-yloxy)methyl]pyridine, oxalate], the melting point is 165 °C. For the same compound, the Ki on human H4 receptor [1] was less than 0.03 µM. The half-maximal inhibitory concentration (IC50) on human H4 receptor [2] was less than 0.3 µM.

With `CN1CCC(OC(c2ccc(Cl)cn2)c2cc(OC(F)(F)F)ccc2F)CC1.O=C(O)C(=O)O` (stereo not drawn) [Example 4, 5-Chloro-2-[(2-fluoro-5-trifluoromethoxyphenyl)(1-methylpiperidin-4-yloxy)methyl]pyridine, oxalate], the melting point is 75 °C. The same compound had a Ki at human H4 receptor [1] of less than 0.3 µM. The same compound displayed an IC50 at human H4 receptor [2] of less than 0.3 µM.

Compound `Cc1ccnc(C(OC2CCN(C)CC2)c2ccc(C)cc2F)c1.O=C(O)C(=O)O.O=C(O)C(=O)O` (stereo not drawn) [Example 7, 2-[(2-Fluoro-4-methylphenyl)(1-methylpiperidin-4-yloxy)methyl]-4-methylpyridine, dioxalate] returned a melting point of 52 °C. For the same compound, the Ki at human H4 receptor [1] was less than 0.3 µM. On human H4 receptor [2], the IC50 is less than 0.3 µM.

Regarding `Cc1ccc(C(OC2CCN(C)CC2)c2ccc(F)cn2)c(F)c1.O=C(O)C(=O)O` (stereo not drawn) [Example 10, 5-Fluoro-2-[(2-fluoro-4-methylphenyl)(1-methylpiperidin-4-yloxy)methyl]pyridine, oxalate], the melting point is 133 °C. Moreover, the Ki at human H4 receptor [1] is less than 0.3 µM. At human H4 receptor [2], the IC50 was less than 0.3 µM.

`CN1CCC(OC(c2cccc(C#CCCCCN)c2)c2ccc(Cl)cn2)CC1.O=C(O)C(=O)O` (stereo not drawn) [Example 18, 6-{3-[(5-Chloropyridin-2-yl)(1-methylpiperidin-4-yloxy)methyl]phenyl}hex-5-ynylamine, oxalate] gave a melting point of 136 °C. In addition, the Ki on human H4 receptor [1] was less than 0.03 µM. Moreover, at human H4 receptor [2], the half-maximal inhibitory concentration (IC50) is less than 0.3 µM.

The compound `CN1CCC(OC(c2ccc3ccccc3c2)c2cc(OC(F)(F)F)ccc2F)CC1.O=C(O)C(=O)O` (stereo not drawn) [Example 28, 4-[(2-Fluoro-5-trifluoromethoxyphenyl)naphthalen-2-ylmethoxy]-1-methylpiperidine, oxalate] displayed a melting point of 105 °C. On human H4 receptor [1], this compound gave a Ki of less than 1 µM. The compound further yielded an IC50 at human H4 receptor [2] of less than 0.3 µM.

Consider `Cc1ccc(C(OC2CCN(C)CC2)c2ccc(Cl)c(Cl)c2)c(F)c1.O=C(O)C(=O)O` (stereo not drawn) [Example 30, 4-[(3,4-Dichlorophenyl)(2-fluoro-4-methylphenyl)methoxy]-1-methylpiperidine, oxalate], for which the melting point is 140 °C. At human H4 receptor [1], this compound had a Ki of less than 0.3 µM. At human H4 receptor [2], this compound yielded an IC50 of less than 0.3 µM.

For the compound `CN1CCC(OC(c2ccc(Cl)c(Cl)c2)c2cc(OC(F)(F)F)ccc2F)CC1.O=C(O)C(=O)O` (stereo not drawn) [Example 31, 4-[(3,4-Dichlorophenyl)(2-fluoro-5-trifluoromethoxyphenyl)methoxy]-1-methylpiperidine, oxalate], the melting point stood at 115 °C. The compound further gave a Ki on human H4 receptor [1] of less than 0.3 µM. The same compound came in with an IC50 on human H4 receptor [2] of less than 0.3 µM.

Consider `CN1CCC(OC(c2ccccc2F)c2cc(OC(F)(F)F)ccc2F)CC1.O=C(O)C(=O)O` (stereo not drawn) [Example 32, 4-[(2-Fluorophenyl)-(2-fluoro-5-trifluoromethoxyphenyl)methoxy]-1-methylpiperidine, oxalate], for which the melting point was determined as 116 °C. The compound further gave a Ki at human H4 receptor [1] of less than 1 µM. The IC50 at human H4 receptor [2] was less than 1 µM.

`CN1CCC(OC(c2ccc(Cl)cc2)c2cc(OC(F)(F)F)ccc2F)CC1.O=C(O)C(=O)O` (stereo not drawn) [Example 33, 4-[(4-Chlorophenyl)(2-fluoro-5-trifluoromethoxyphenyl)methoxy]-1-methylpiperidine, oxalate] displayed a melting point of 117 °C. At human H4 receptor [1], this compound yielded an inhibitory constant (Ki) of less than 0.3 µM. On human H4 receptor [2], this compound displayed an IC50 of less than 0.3 µM.

On to `CN1CCC(OC(c2ccc(Cl)cc2)c2cccc(I)c2)CC1.O=C(O)C(=O)O` (stereo not drawn) [Example 35, 4-[(4-Chlorophenyl)(3-iodophenyl)methoxy]-1-methylpiperidine, oxalate], for which the melting point was 141 °C. At human H4 receptor [1], this compound showed an inhibitory constant (Ki) of less than 0.03 µM. At human H4 receptor [2], this compound showed an IC50 of less than 0.3 µM.
